Reference: article PMC3047591 (Inorganic chemistry, 2011)

How the values were obtained:
[1] = biological target: T1, His93Gly sperm whale myoglobin (H93G Mb) (Physeter macrocephalus, UniProt P02185, H94G); assay: electronic absorption and MCD spectroscopy, titration; format: binding
[2] = biological target: T1, His93Gly sperm whale myoglobin (H93G Mb); assay: electronic absorption and MCD spectroscopy of mixed CHA/Im adduct; format: binding

T1 sequence (P02185 2-154 H94G): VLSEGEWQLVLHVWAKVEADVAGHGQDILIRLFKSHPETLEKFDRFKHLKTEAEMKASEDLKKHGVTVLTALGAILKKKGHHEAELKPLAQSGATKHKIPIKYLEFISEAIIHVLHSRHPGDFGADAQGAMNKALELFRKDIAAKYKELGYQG

Row | SMILES | electronic absorption and MCD spectroscopy, titration [1] | electronic absorption and MCD spectroscopy of mixed CHA/Im adduct [2]
1 | NC1CCCCC1 [CHA, cyclohexylamine] | ferric CHA-ligated H93G Mb is a six-coordinate high-spin H93G Mb derivative with the CHA amine group as the proximal donor | –
2 | c1c[nH]cn1 [Im, imidazole] | – | the final spectrum is that of a nearly homogeneous Im/CHA mixed-ligand adduct
